From ChEMBL document CHEMBL5465560, “Selectivity Literature for EUbOPEN Chemogenomic Library” (2024) come the findings set out here.

Experiment [1] has as its target T1, Serine/threonine-protein kinase PLK4 (Homo sapiens) (UniProt O00444).
T1 sequence (whole entry): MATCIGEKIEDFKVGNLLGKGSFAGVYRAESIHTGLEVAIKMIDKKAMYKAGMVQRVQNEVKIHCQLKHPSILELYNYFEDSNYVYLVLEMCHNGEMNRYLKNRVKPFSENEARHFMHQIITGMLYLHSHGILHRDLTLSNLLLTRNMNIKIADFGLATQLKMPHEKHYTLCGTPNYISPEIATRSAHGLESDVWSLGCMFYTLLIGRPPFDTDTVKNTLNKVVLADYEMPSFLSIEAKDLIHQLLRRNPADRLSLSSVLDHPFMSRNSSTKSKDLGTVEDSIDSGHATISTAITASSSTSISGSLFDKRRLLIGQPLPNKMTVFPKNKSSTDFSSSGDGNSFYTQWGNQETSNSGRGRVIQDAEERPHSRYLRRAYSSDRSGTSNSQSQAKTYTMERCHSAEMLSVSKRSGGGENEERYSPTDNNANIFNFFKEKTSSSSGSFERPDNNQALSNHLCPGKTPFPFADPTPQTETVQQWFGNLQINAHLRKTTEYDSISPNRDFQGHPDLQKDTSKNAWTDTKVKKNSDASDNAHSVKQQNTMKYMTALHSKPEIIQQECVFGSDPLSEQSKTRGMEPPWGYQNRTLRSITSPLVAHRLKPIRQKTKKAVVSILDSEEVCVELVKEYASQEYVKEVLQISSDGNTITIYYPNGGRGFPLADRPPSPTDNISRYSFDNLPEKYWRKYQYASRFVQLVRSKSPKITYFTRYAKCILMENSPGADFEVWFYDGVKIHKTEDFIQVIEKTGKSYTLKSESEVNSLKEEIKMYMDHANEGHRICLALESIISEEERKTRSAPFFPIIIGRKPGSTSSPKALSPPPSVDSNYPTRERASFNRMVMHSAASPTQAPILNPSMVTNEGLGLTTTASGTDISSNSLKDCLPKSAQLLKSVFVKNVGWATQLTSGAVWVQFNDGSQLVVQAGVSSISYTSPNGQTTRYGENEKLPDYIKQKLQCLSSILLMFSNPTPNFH
Nature of the experiment: Selectivity interaction (KinomeScan (DiscoverX)) EUB0001619a PLK4. To be noted: at 1 µM.

The target of experiment [2] is High affinity choline transporter 1 (Homo sapiens) (UniProt Q9GZV3). Nature of the experiment: Selectivity interaction (Eurofins CEREP Diversity Profile (receptors and ion channels)) EUB0000279b SLC5A7. Particulars: at 10 µM.
Experiment [3] addresses Calcium/calmodulin-dependent protein kinase type 1D (Homo sapiens) (UniProt Q8IU85). To be noted: at 10 µM.
Experiment [4] has as its target Serine/threonine-protein kinase NIM1 (Homo sapiens, UniProt Q8IY84). Nature of the experiment: Selectivity interaction (KinomeScan (DiscoverX)) EUB0000695a NIM1K. Particulars: at 100 nM.
Experiment [5] has as its target Mast/stem cell growth factor receptor Kit (Homo sapiens, UniProt P10721). In words: Selectivity interaction (KinomeScan (DiscoverX)) EUB0000695a KIT. To be noted: at 100 nM.
The target of experiment [6] is Phosphatidylinositol 4-kinase beta (Homo sapiens, UniProt Q9UBF8). In words: Selectivity interaction (ActivX KiNativ screen (kinase selectivity in THP-1 cell lysates)) EUB0000639a PI4KB. It is filed as subcellular. Particulars: lysate.
Experiment [7] concerns the target Tyrosine-protein kinase Lck (Homo sapiens, UniProt P06239). In words: Selectivity interaction (Enzymatic assay) EUB0001199aCl LCK.
Experiment [8] deals with Mitogen-activated protein kinase 9 (Homo sapiens, UniProt P45984). In words: Selectivity interaction (KinomeScan (DiscoverX)) EUB0001049a MAPK9. Particulars: at 1 µM.
The target in experiment [9] is T2, Ephrin type-A receptor 3 (Homo sapiens) (UniProt P29320).
T2 sequence (whole entry): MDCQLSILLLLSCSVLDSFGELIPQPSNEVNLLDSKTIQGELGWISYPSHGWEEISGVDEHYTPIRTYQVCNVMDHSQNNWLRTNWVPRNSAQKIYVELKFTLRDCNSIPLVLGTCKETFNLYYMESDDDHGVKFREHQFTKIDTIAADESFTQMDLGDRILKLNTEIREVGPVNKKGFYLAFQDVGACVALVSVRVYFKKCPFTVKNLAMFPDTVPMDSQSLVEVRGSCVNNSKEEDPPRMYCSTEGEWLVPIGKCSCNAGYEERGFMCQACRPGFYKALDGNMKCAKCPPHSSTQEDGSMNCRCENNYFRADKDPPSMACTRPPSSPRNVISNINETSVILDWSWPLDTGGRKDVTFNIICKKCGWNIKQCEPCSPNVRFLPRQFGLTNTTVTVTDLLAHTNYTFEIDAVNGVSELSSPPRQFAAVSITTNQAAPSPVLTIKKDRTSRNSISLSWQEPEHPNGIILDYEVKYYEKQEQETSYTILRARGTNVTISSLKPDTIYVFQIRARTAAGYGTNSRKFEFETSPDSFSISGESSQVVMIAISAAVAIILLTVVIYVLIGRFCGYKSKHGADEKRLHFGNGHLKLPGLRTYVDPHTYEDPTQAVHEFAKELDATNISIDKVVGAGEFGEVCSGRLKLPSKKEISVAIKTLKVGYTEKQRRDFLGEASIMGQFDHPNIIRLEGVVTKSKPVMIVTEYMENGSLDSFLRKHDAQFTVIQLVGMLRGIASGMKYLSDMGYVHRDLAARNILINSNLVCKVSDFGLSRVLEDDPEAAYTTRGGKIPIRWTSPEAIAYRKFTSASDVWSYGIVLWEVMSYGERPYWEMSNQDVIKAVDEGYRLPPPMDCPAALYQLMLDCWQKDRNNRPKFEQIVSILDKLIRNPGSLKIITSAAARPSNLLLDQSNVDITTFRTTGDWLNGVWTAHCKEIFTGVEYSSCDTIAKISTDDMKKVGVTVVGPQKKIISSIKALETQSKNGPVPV
Nature of the experiment: Selectivity interaction (KinomeScan (DiscoverX)) EUB0000655a EPHA3. To be noted: at 10 µM.

Sequence of Phosphatidylinositol 4-kinase beta (Q9UBF8 2-816 limits assumed): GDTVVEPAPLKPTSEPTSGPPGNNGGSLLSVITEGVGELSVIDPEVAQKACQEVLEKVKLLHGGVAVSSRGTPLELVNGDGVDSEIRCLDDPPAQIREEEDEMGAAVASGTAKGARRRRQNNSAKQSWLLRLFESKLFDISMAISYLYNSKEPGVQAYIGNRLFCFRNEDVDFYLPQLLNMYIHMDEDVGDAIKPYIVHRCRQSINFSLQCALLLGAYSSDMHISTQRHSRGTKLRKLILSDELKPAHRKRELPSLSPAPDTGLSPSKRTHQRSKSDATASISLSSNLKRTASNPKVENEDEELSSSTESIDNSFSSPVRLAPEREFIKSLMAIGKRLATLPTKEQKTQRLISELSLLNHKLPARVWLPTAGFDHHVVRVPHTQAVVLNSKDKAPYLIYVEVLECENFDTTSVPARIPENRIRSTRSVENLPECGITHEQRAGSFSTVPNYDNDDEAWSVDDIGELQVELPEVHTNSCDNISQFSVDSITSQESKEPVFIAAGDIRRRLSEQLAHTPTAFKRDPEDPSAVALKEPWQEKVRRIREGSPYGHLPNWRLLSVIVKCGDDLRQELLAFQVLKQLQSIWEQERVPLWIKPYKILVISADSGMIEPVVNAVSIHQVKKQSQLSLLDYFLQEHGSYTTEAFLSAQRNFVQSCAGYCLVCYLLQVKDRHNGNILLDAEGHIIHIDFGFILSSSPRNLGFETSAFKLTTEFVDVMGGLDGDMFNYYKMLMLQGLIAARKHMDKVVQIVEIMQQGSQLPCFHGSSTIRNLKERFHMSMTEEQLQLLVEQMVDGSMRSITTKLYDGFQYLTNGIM
Sequence of High affinity choline transporter 1 (Homo sapiens) (Q9GZV3 whole entry): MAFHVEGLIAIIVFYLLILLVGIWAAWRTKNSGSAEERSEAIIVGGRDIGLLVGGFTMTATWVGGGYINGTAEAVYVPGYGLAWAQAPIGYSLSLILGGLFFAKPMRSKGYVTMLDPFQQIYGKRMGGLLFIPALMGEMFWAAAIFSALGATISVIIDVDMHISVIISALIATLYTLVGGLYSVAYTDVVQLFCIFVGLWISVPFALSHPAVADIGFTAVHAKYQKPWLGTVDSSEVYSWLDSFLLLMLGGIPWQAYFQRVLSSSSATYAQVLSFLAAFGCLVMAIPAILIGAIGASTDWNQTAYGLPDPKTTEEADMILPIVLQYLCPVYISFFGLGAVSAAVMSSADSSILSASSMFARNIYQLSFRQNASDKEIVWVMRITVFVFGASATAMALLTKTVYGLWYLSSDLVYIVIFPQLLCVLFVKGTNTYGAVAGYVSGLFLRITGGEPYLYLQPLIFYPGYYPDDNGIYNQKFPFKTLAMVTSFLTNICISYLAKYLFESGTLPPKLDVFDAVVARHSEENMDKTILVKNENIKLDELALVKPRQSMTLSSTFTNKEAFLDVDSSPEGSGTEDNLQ
Sequence of Tyrosine-protein kinase Lck (P06239 whole entry): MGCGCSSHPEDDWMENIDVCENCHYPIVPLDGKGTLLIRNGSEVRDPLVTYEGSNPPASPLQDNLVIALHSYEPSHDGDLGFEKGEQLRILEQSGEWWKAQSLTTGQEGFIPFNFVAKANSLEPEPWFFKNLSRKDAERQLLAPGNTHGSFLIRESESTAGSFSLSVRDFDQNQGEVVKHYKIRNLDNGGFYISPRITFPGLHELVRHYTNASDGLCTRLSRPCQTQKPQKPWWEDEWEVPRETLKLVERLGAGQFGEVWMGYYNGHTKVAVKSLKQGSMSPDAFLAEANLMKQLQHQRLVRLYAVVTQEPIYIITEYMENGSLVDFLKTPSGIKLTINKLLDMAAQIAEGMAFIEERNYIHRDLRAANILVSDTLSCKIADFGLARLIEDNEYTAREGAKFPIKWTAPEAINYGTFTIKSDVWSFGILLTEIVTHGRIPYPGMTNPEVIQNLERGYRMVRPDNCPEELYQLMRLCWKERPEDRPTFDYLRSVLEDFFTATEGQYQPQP
Sequence of Serine/threonine-protein kinase NIM1 (Q8IY84 whole entry): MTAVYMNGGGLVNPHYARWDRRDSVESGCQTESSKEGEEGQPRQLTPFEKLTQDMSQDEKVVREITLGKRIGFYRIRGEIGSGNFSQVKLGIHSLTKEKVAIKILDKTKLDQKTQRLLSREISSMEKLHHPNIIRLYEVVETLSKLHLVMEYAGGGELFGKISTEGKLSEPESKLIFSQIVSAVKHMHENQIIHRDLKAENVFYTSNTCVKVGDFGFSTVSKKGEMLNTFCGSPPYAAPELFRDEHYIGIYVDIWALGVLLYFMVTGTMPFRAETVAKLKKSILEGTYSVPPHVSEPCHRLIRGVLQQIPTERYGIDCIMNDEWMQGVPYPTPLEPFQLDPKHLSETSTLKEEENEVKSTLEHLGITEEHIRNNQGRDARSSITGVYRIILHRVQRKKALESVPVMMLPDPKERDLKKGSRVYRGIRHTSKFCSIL
Sequence of Mitogen-activated protein kinase 9 (P45984 whole entry, looked up): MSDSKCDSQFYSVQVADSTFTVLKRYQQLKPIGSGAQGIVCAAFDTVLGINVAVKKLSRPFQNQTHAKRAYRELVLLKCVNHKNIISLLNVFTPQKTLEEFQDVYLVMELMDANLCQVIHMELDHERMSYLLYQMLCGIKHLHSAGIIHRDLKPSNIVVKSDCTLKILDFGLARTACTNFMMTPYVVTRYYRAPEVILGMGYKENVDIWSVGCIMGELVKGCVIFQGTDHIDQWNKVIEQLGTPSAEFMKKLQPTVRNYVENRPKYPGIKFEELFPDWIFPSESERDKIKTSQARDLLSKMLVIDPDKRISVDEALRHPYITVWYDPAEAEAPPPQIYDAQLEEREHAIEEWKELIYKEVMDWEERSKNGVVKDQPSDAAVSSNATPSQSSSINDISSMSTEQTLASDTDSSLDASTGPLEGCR
Sequence of Calcium/calmodulin-dependent protein kinase type 1D (Homo sapiens) (Q8IU85 whole entry, looked up): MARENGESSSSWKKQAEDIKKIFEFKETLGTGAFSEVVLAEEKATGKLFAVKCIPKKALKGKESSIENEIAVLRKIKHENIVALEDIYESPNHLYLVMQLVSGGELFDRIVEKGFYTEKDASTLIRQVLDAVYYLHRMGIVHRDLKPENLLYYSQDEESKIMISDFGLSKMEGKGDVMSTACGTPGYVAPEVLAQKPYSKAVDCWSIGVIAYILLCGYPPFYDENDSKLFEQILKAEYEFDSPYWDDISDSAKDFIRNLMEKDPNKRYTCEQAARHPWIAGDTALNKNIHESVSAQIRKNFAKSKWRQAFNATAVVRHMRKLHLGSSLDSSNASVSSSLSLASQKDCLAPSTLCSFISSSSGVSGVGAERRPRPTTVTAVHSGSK
Sequence of Mast/stem cell growth factor receptor Kit (P10721 whole entry): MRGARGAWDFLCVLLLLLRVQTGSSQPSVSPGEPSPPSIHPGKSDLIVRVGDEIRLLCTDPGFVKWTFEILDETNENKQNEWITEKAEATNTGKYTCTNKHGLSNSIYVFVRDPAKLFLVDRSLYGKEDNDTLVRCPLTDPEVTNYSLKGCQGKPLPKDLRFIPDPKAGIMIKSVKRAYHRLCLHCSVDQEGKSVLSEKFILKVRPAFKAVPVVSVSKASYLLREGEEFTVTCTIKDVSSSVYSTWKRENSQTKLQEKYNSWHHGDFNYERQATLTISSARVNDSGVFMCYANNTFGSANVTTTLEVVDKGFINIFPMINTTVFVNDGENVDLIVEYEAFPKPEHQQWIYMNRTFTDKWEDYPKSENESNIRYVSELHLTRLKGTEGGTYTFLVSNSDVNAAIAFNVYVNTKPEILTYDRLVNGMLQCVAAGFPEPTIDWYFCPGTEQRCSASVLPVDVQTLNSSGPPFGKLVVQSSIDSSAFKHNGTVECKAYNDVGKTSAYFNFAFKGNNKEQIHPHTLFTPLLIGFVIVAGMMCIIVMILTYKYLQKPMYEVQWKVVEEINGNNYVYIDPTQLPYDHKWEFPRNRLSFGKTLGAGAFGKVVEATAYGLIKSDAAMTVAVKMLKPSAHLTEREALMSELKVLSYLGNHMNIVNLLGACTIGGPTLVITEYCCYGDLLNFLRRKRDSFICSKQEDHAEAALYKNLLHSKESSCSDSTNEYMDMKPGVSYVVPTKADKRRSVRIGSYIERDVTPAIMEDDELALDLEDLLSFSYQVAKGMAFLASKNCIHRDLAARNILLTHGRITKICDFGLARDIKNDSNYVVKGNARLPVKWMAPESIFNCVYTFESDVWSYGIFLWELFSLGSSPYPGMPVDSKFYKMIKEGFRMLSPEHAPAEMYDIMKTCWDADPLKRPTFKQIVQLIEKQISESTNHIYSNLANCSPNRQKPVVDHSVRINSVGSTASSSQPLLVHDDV

In experiment [1], `N#Cc1cccc(-c2c[nH]c3ncnc(N4CCOCC4)c23)c1` came in with a % of control of 33%.
The molecule `CC(=O)c1cc(-c2ccccc2OCC2CC2)c2ncccn12` came in with a % of control in experiment [2] of 90%.
As to `CCN(CC)CCCCNc1ncc2cc(-c3cc(OC)cc(OC)c3)c(NC(=O)NC(C)(C)C)nc2n1`, in experiment [3], the % of control turned out to be 100%.
Take `Cc1cc(F)c(C(=O)Nc2cccc(-c3nncn3C(C)C)n2)cc1-n1cnc(C2CC2)c1`: the results for the % of control in experiment [4] and in experiment [5] were 84% and 100%, respectively.
For the molecule `CC[C@@H]1[C@H](F)C(=O)N[C@@H]1COc1nccc2cc(C(N)=O)c(OC)cc12` [ZIMLOVISERTIB], the % of inhibition was -20.4% in experiment [6] (at 0.01 µM); 12.3% in [6] (at 0.04 µM); 15.1% in [6] (at 0.2 µM); 7.7% in experiment [6] (at 1 µM); -1.3% in experiment [6] (at 5 µM).
Turning to `CN1Cc2nccc(-c3cn(C)nc3-c3ccc(F)cc3)c2C1=O`, in experiment [7], the 50% inhibitory concentration (IC50) – broadly, the midpoint of a concentration-inhibition curve – amounted to 10.2 µM.
In [8], `COc1cc(Nc2nc(C)cc(-c3cnn4nc(OC)ccc34)n2)cc(C(F)(F)F)c1` came in with a % of control of 82%.
Molecule `CN(C)CCOc1ccc(-c2nc(-c3ccncc3)c(-c3ccc4c(c3)CC/C4=N\O)[nH]2)cc1` returned a % of control in [9] of 99%.
